In the test the target is hSTING (Homo sapiens (Human), UniProt Q86WV6, G230A/R293Q/R71H). In words: STING reporter assay (luciferase) in THP1-Dual KO-IFNAR2 cells stimulated with 2'3'cGAMP. As to conditions: 15 μM 2'3'cGAMP, 24 h. Format: cell-based. The procedure:
STING pathway activation by the compounds described herein was measured using THP1-Dual™ cells (KO-IFNAR2).
THP1-Dual™ KO-IFNAR2 Cells (obtained from invivogen) were maintained in RPMI, 10% FCS, 5 ml P/S, 2 mM L-glut, 10 mM Hepes, and 1 mM sodium pyruvate. Compounds were spotted in empty 384 well tissue culture plates (Greiner 781182) by Echo for a final concentration of 0.0017-100 μM. Cells were plated into the TC plates at 40 μL per well, 2×10E6 cells/mL. For activation with STING ligand, 2′3′cGAMP (MW 718.38, obtained from Invivogen), was prepared in Optimem media.
The following solutions were prepared for each 1×384 plate: • Solution A: 2 mL Optimem with one of the following stimuli: • 60 μL of 10 mM 2′3′cGAMP→150 μM stock • Solution B: 2 mL Optimem with 60 μL Lipofectamine 2000→Incubate 5 min at RT
2 mL of solution A and 2 ml Solution B was mixed and incubated for 20 min at room temperature (RT). 20 μL of transfection solution (A+B) was added on top of the plated cells, with a final 2′3′cGAMP concentration of 15 μM. The plates were then centrifuged immediately at 340 g for 1 minute, after which they were incubated at 37° C., 5% CO2, >98% humidity for 24 h. Luciferase reporter activity was then measured. EC50 values were calculated by using standard methods known in the art.
Luciferase reporter assay: 10 μL of supernatant from the assay was transferred to white 384-plate with flat bottom and squared wells. One pouch of QUANTI-Luc™ Plus was dissolved in 25 mL of water. 100 μL of QLC Stabilizer per 25 mL of QUANTI-Luc™ Plus solution was added. 50 μL of QUANTI-Luc™ Plus/QLC solution per well was then added. Luminescence was measured on a Platereader (e.g., Spectramax I3X (Molecular Devices GF3637001)).
Luciferase reporter activity was then measured. EC50 values were calculated by using standard methods known in the art.
For orientation: A reporter such as luciferase makes a cellular process visible.
hSTING, sequence (Q86WV6 whole entry R71H/G230A/R293Q): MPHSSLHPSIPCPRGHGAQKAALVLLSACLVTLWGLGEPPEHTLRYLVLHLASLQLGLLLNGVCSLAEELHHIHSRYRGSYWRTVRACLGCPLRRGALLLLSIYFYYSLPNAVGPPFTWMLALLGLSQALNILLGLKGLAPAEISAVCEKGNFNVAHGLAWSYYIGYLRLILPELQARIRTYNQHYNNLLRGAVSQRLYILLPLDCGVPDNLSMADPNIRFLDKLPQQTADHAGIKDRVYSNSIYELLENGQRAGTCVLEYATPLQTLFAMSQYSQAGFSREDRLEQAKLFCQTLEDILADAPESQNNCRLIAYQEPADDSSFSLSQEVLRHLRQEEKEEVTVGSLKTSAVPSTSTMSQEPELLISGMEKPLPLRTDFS
As to `CO[C@H]1C[C@H](NC(=O)C(=O)Nc2c[nH]c3ccc(-c4cnn(-c5ccc(C(F)(F)F)cc5)c4)cc23)C1` [Compound 101, N-[trans-3-methoxycyclobutyl]-N′-(5-[1-[4-(trifluoromethyl)phenyl]pyrazol-4-yl]-1H-indol-3-yl)ethanediamide], the concentration giving a half-maximal response (EC50) – broadly, the concentration needed to bring the measured effect to its halfway point – lay in the range of 200 to 1000 nM.
As for `O=C(Nc1c[nH]c2ccc(-c3cnn(-c4ccc(C(F)(F)F)cc4)c3)cc12)C(=O)NC1COC1` [Compound 102, N^1-(oxetan-3-yl)-N^2-(5-(1-(4-(trifluoromethyl)phenyl)-1H-pyrazol-4-yl)-1H-indol-3-yl)oxalamide], the 50% effective concentration (EC50) lay within 200 to 1000 nM.
The result for `CCc1ccc(-n2cc(-c3ccc4[nH]cc(NC(=O)C(=O)NCCC(F)(F)F)c4c3)cn2)cc1` [Compound 103, N′-{5-[1-(4-ethylphenyl)-1H-pyrazol-4-yl]-1H-indol-3-yl}-N-(3,3,3-trifluoropropyl)ethanediamide] reads 200 to 1000 nM; that for `CCc1ccc(-n2cc(-c3ccc4[nH]cc(NC(=O)C(=O)NC5CCCC5)c4c3)cn2)cc1` [Compound 104, N′-cyclopentyl-N-{5-[1-(4-ethylphenyl)-1H-pyrazol-4-yl]-1H-indol-3-yl}ethanediamide], 200 to 1000 nM.
For the compound `CCc1ccc(-n2cc(-c3ccc4[nH]cc(NC(=O)C(=O)NCC5CC5)c4c3)cn2)cc1` [Compound 105, N-(cyclopropylmethyl)-N′-{5-[1-(4-ethylphenyl)-1H-pyrazol-4-yl]-1H-indol-3-yl}ethanediamide], the EC50 lay in the range of 200 to 1000 nM.
The result for `CCc1ccc(-n2cc(-c3ccc4[nH]cc(NC(=O)C(=O)NCC5CCCC5)c4c3)cn2)cc1` [Compound 106, N′-(cyclopentylmethyl)-N-{5-[1-(4-ethylphenyl)-1H-pyrazol-4-yl]-1H-indol-3-yl}ethanediamide] reads 200 to 1000 nM; that for `CCc1ccc(-n2cc(-c3ccc4[nH]cc(NC(=O)C(=O)N5CCC5)c4c3)cn2)cc1` [Compound 107, 2-(azetidin-1-yl)-N-{5-[1-(4-ethylphenyl)-1H-pyrazol-4-yl]-1H-indol-3-yl}-2-oxoacetamide], 200 to 1000 nM.
Turning to `CCc1ccc(-n2cc(-c3ccc4[nH]cc(NC(=O)C(=O)NC5CCOC5)c4c3)cn2)cc1` (stereo not drawn) [Compound 108, N-{5-[1-(4-ethylphenyl)-1H-pyrazol-4-yl]-1H-indol-3-yl}-N′-(oxolan-3-yl)ethanediamide], the EC50 lay in the range of 200 to 1000 nM.
The compound `CCc1ccc(-n2cc(-c3ccc4[nH]cc(NC(=O)C(=O)N[C@H]5C[C@H](OC)C5)c4c3)cn2)cc1` [Compound 109, N′-{5-[1-(4-ethylphenyl)-1H-pyrazol-4-yl]-1H-indol-3-yl}-N-[(1r,3r)-3-methoxycyclobutyl]ethanediamide] registered an EC50 of 200 to 1000 nM.
Under `CCc1ccc(-n2cc(-c3ccc4[nH]cc(NC(=O)C(=O)NC(C)C)c4c3)cn2)cc1` [Compound 110, N′-{5-[1-(4-ethylphenyl)-1H-pyrazol-4-yl]-1H-indol-3-yl}-N-(propan-2-yl)ethanediamide] stands 200 to 1000 nM; under `CCc1ccc(-n2cc(-c3ccc4[nH]cc(NC(=O)C(=O)N5CCN(C(C)=O)CC5)c4c3)cn2)cc1` [Compound 111, 2-(4-acetylpiperazin-1-yl)-N-{5-[1-(4-ethylphenyl)-1H-pyrazol-4-yl]-1H-indol-3-yl}-2-oxoacetamide], 200 to 1000 nM.
The result for `CCc1ccc(-n2cc(-c3ccc4[nH]cc(NC(=O)C(=O)N(C)C)c4c3)cn2)cc1` [Compound 112, N′-{5-[1-(4-ethylphenyl)-1H-pyrazol-4-yl]-1H-indol-3-yl}-N,N-dimethylethanediamide] reads 200 to 1000 nM.
In the case of `CCc1ccc(-n2cc(-c3ccc4[nH]cc(NC(=O)C(=O)NC5CCC5)c4c3)cn2)cc1` [Compound 113, N-cyclobutyl-N′-{5-[1-(4-ethylphenyl)-1H-pyrazol-4-yl]-1H-indol-3-yl}ethanediamide], the concentration giving a half-maximal response (EC50) was 200 to 1000 nM.
The result for `CCc1ccc(-n2cc(-c3ccc4[nH]cc(NC(=O)C(=O)NCC(F)(F)F)c4c3)cn2)cc1` [Compound 114, N1-(5-(1-(4-ethylphenyl)-1H-pyrazol-4-yl)-1H-indol-3-yl)-N^2-(2,2,2-trifluoroethyl)oxalamide] reads 200 to 1000 nM.
Under `CCc1ccc(-n2cc(-c3ccc4[nH]cc(NC(=O)C(=O)N5CCCC5)c4c3)cn2)cc1` [Compound 115, N-{5-[1-(4-ethylphenyl)-1H-pyrazol-4-yl]-1H-indol-3-yl}-2-oxo-2-(pyrrolidin-1-yl)acetamide] stands 200 to 1000 nM; under `CCc1ccc(-n2cc(-c3ccc4[nH]cc(NC(=O)C(=O)NCC(F)F)c4c3)cn2)cc1` [Compound 116, N-(2,2-difluoroethyl)-N′-{5-[1-(4-ethylphenyl)-1H-pyrazol-4-yl]-1H-indol-3-yl}ethanediamide], 200 to 1000 nM.
Regarding `CNC(=O)C(=O)Nc1c[nH]c2ccc(-c3cccc(C4CC4)c3)cc12` [Compound 117, N^1-(5-(3-cyclopropylphenyl)-1H-indol-3-yl)-N^2-methyloxalamide], the concentration for a half-maximal effect (EC50) lay within 5000 to 100000 nM.
Under `CNC(=O)C(=O)Nc1c[nH]c2ccc(-c3cnn(-c4ccc(C(F)(F)F)cc4)c3)cc12` [Compound 118, N^1-methyl-N^2-(5-(1-(4-(trifluoromethyl)phenyl)-1H-pyrazol-4-yl)-1H-indol-3-yl)oxalamide] stands 200 to 1000 nM; under `CNC(=O)C(=O)Nc1c[nH]c2ccc(-c3cnn(-c4cccc(Cl)c4)c3)cc12` [Compound 119, N^1-(5-(1-(3-chlorophenyl)-1H-pyrazol-4-yl)-1H-indol-3-yl)-N^2-methyloxalamide], 1000 to 5000 nM; under `CCc1ccc(-n2cc(-c3ccc4[nH]cc(NC(=O)C(=O)NCCOC)c4c3)cn2)cc1` [Compound 120, N′-{5-[1-(4-ethylphenyl)-1H-pyrazol-4-yl]-1H-indol-3-yl}-N-(2-methoxyethyl)ethanediamide], 200 to 1000 nM.
The result for `CNC(=O)C(=O)Nc1c[nH]c2ccc(-c3cnn(-c4ccccc4Cl)c3)cc12` [Compound 121, N^1-(5-(1-(2-chlorophenyl)-1H-pyrazol-4-yl)-1H-indol-3-yl)-N^2-methyloxalamide] reads 1000 to 5000 nM.
The result for `CNC(=O)C(=O)Nc1c[nH]c2ccc(-c3cnn(C4CCCC4)c3)cc12` [Compound 122, N^1-(5-(1-cyclopentyl-1H-pyrazol-4-yl)-1H-indol-3-yl)-N^2-methyloxalamide] reads 5000 to 100000 nM; that for `CCc1ccc(-n2cc(-c3ccc4[nH]cc(NC(=O)C(=O)NC)c4c3)cn2)cc1` [Compound 123, N′-[5-[1-(4-ethylphenyl)pyrazol-4-yl]-1H-indol-3-yl]-N-methylethanediamide], 200 to 1000 nM.
In turn, `CCc1ccc(-n2cc(-c3ccc4[nH]cc(NC(=O)C(N)=O)c4c3)cn2)cc1` [Compound 124, N^1-(5-(1-(4-ethylphenyl)-1H-pyrazol-4-yl)-1H-indol-3-yl)oxalamide] registered an EC50 of 200 to 1000 nM.

Values taken from patent US20240083879A1, “OXALAMIDE COMPOUNDS AND COMPOSITIONS FOR TREATING CONDITIONS ASSOCIATED WITH STING ACTIVITY” (IFM Due, Inc., priority 2021, published 2024).
